Data published in paper PMC6325200, “Effects of Microplate Type and Broth Additives on Microdilution MIC Susceptibility Assays” (Antimicrobial Agents and Chemotherapy, 2018).
Values after ≈ are worked out from the molar mass of the structure shown.

Experiments:
E. coli ATCC 25922 = experiment: microbe, parasite or virus in culture; conditions: n = 2
Summary of the method: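 Broth microdilution with 2-fold serial compound dilutions in MH broth, using cultures diluted 40-fold and grown at 37°C for 2 to 3 h, with or without Tween. Variants included 2% beractant added to mid-log cultures, or 50% human serum in MHB.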

A. baumannii ATCC 19606 = experiment: microbe, parasite or virus in culture; conditions: Acinetobacter baumannii, n = 2
Summary of the method: (§1)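 MH broth with or without Tween received a 40-fold dilution of each culture, held at 37°C for 2–3 h. Twofold dilution series of the compounds and standard antibiotics are run in 96-well plates.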

K. pneumoniae ATCC 13883 = experiment: microbe, parasite or virus in culture; conditions: Klebsiella pneumoniae, n = 2
Summary of the method: as §1

P. aeruginosa ATCC 10145 = experiment: microbe, parasite or virus in culture; conditions: Pseudomonas aeruginosa, n = 2
Summary of the method: as §1

MRSA = conditions: literature value; cited from earlier work
Excerpt: TABLE 1 Literature MIC values for tested antibiotics | column: MIC (µg/ml) (reference[s]) / MRSA

E. coli = conditions: literature value; cited from earlier work

`CO[C@H]1/C=C/O[C@@]2(C)Oc3c(C)c(O)c4c(O)c(c(/C=N/N5CCN(C)CC5)c(O)c4c3C2=O)NC(=O)/C(C)=C\C=C\[C@H](C)[C@H](O)[C@@H](C)[C@@H](O)[C@@H](C)[C@H](OC(C)=O)[C@@H]1C` [Rifampin, rifampin] showed an MIC (E. coli ATCC 25922; Corning NBS plate, MHB −T80, no additive) of 4 to 8 µg/mL, an MIC (E. coli ATCC 25922; Corning NBS plate, MHB −T80, no additive, listed as Rifampicin) of 4 to 8 µg/mL and an MIC (E. coli ATCC 25922; Corning PS plate, MHB +0.002% T80, no further additive) of 8 to 16 µg/mL. It also gave an MIC (E. coli ATCC 25922; Corning PS plate, MHB +0.002% T80, no further additive, listed as Rifampicin) of 8 to 16 µg/mL, an MIC (E. coli ATCC 25922; Corning PS plate, MHB −T80, no additive) of 4 to 8 µg/mL and an MIC (E. coli ATCC 25922; Corning PS plate, MHB −T80, no additive, listed as Rifampicin) of 4 to 8 µg/mL. For the same molecule, the MIC (E. coli ATCC 25922; Corning TC plate, MHB −T80, no additive) was 4 to 8 µg/mL, the MIC (E. coli ATCC 25922; Corning TC plate, MHB −T80, no additive, listed as Rifampicin) was 4 to 8 µg/mL and the MIC (E. coli ATCC 25922; Escherichia coli, ATCC25922, 24 h, Corning NBS, MH + 2% LHB, 2% LS) was 4 to 8 µg/mL. The MIC (E. coli ATCC 25922; Escherichia coli, ATCC25922, 24 h, Corning NBS, MH + 2% LHB, 50% HS) was 8 µg/mL, the MIC (E. coli ATCC 25922; Escherichia coli, ATCC25922, 24 h, Corning NBS, MH + 2% LHB, no additive) was 2 to 4 µg/mL and the MIC (E. coli ATCC 25922; Escherichia coli, ATCC25922, 24 h, Corning NBS, MH + T80, 2% LS) was 4 to 8 µg/mL. It also gave an MIC (E. coli ATCC 25922; Escherichia coli, ATCC25922, 24 h, Corning NBS, MH + T80, 50% HS) of 8 µg/mL, an MIC (E. coli ATCC 25922; Escherichia coli, ATCC25922, 24 h, Corning PS, MH + 2% LHB, 2% LS) of 4 to 8 µg/mL and an MIC (E. coli ATCC 25922; Escherichia coli, ATCC25922, 24 h, Corning PS, MH + 2% LHB, 50% HS) of 4 to 8 µg/mL. It also gave an MIC (E. coli ATCC 25922; Escherichia coli, ATCC25922, 24 h, Corning PS, MH + 2% LHB, no additive) of 4 to 8 µg/mL, an MIC (E. coli ATCC 25922; Escherichia coli, ATCC25922, 24 h, Corning PS, MH + T80, 2% LS) of 4 to 8 µg/mL and an MIC (E. coli ATCC 25922; Escherichia coli, ATCC25922, 24 h, Corning PS, MH + T80, 50% HS) of 8 µg/mL. The MIC (E. coli ATCC 25922; Escherichia coli, ATCC25922, 24 h, Corning TC, MH + 2% LHB, 2% LS) was 8 µg/mL, the MIC (E. coli ATCC 25922; Escherichia coli, ATCC25922, 24 h, Corning TC, MH + 2% LHB, 50% HS) was 8 to 16 µg/mL and the MIC (E. coli ATCC 25922; Escherichia coli, ATCC25922, 24 h, Corning TC, MH + 2% LHB, no additive) was 8 µg/mL. The MIC (E. coli ATCC 25922; Escherichia coli, ATCC25922, 24 h, Corning TC, MH + T80, 2% LS) was 4 to 8 µg/mL, the MIC (E. coli ATCC 25922; Escherichia coli, ATCC25922, 24 h, Corning TC, MH + T80, 50% HS) was 8 µg/mL and the MIC (E. coli ATCC 25922; Escherichia coli, ATCC25922, 24 h, Trek PS, MH + 2% LHB, 2% LS) was 2 to 4 µg/mL. It also gave an MIC (E. coli ATCC 25922; Escherichia coli, ATCC25922, 24 h, Trek PS, MH + 2% LHB, 50% HS) of 4 µg/mL, an MIC (E. coli ATCC 25922; Escherichia coli, ATCC25922, 24 h, Trek PS, MH + 2% LHB, no additive) of 4 to 8 µg/mL and an MIC (E. coli ATCC 25922; Escherichia coli, ATCC25922, 24 h, Trek PS, MH + T80, 2% LS) of 4 µg/mL. It also gave an MIC (E. coli ATCC 25922; Escherichia coli, ATCC25922, 24 h, Trek PS, MH + T80, 50% HS) of 4 to 8 µg/mL, an MIC (E. coli ATCC 25922; Escherichia coli, ATCC25922, Corning NBS plate, MHB +0.002% T80, no further additive) of 8 µg/mL (≈ 9.72 µM) and an MIC (E. coli ATCC 25922; Escherichia coli, ATCC25922, Corning NBS plate, MHB −T80, no additive) of 4 to 8 µg/mL (≈ 4.86 to 9.72 µM). For the same molecule, the MIC (E. coli ATCC 25922; Escherichia coli, ATCC25922, Corning NBS, MH, 2% LS) was 8 µg/mL (≈ 9.72 µM), the MIC (E. coli ATCC 25922; Escherichia coli, ATCC25922, Corning NBS, MH, 50% HS) was 8 µg/mL (≈ 9.72 µM) and the MIC (E. coli ATCC 25922; Escherichia coli, ATCC25922, Corning PS plate, MHB +0.002% T80, no further additive) was 8 to 16 µg/mL (≈ 9.72 to 19.4 µM). The MIC (E. coli ATCC 25922; Escherichia coli, ATCC25922, Corning PS plate, MHB −T80, no additive) was 4 to 8 µg/mL (≈ 4.86 to 9.72 µM), the MIC (E. coli ATCC 25922; Escherichia coli, ATCC25922, Corning PS, MH, 2% LS) was 8 µg/mL (≈ 9.72 µM) and the MIC (E. coli ATCC 25922; Escherichia coli, ATCC25922, Corning PS, MH, 50% HS) was 4 to 8 µg/mL (≈ 4.86 to 9.72 µM). For the same molecule, the MIC (E. coli ATCC 25922; Escherichia coli, ATCC25922, Corning TC plate, MHB +0.002% T80, no further additive) was 8 µg/mL (≈ 9.72 µM), the MIC (E. coli ATCC 25922; Escherichia coli, ATCC25922, Corning TC plate, MHB −T80, no additive) was 4 to 8 µg/mL (≈ 4.86 to 9.72 µM) and the MIC (E. coli ATCC 25922; Escherichia coli, ATCC25922, Corning TC, MH, 2% LS) was 8 µg/mL (≈ 9.72 µM). The MIC (E. coli ATCC 25922; Escherichia coli, ATCC25922, Corning TC, MH, 50% HS) was 8 µg/mL (≈ 9.72 µM), the MIC (E. coli ATCC 25922; Escherichia coli, ATCC25922, Nunc PS plate, MHB +0.002% T80) was 4 to 8 µg/mL (≈ 4.86 to 9.72 µM) and the MIC (E. coli ATCC 25922; Escherichia coli, ATCC25922, Nunc PS plate, MHB −T80) was 4 µg/mL (≈ 4.86 µM). The MIC (E. coli ATCC 25922; Escherichia coli, ATCC25922, Nunc U TC plate, MHB +0.002% T80) was 8 µg/mL (≈ 9.72 µM), the MIC (E. coli ATCC 25922; Escherichia coli, ATCC25922, Nunc U TC plate, MHB −T80) was 4 to 8 µg/mL (≈ 4.86 to 9.72 µM) and the MIC (E. coli ATCC 25922; Escherichia coli, ATCC25922, Nunc flat TC plate, MHB +0.002% T80) was 8 µg/mL (≈ 9.72 µM). For the same molecule, the MIC (E. coli ATCC 25922; Escherichia coli, ATCC25922, Nunc flat TC plate, MHB −T80) was 4 µg/mL (≈ 4.86 µM), the MIC (E. coli ATCC 25922; Escherichia coli, ATCC25922, Trek PS plate, MHB +0.002% T80, no further additive) was 8 to 16 µg/mL (≈ 9.72 to 19.4 µM) and the MIC (E. coli ATCC 25922; Escherichia coli, ATCC25922, Trek PS plate, MHB −T80, no additive) was 4 µg/mL (≈ 4.86 µM). The MIC (E. coli ATCC 25922; Escherichia coli, ATCC25922, Trek PS, MH, 2% LS) was 4 to 8 µg/mL (≈ 4.86 to 9.72 µM), the MIC (E. coli ATCC 25922; Escherichia coli, ATCC25922, Trek PS, MH, 50% HS) was 8 µg/mL (≈ 9.72 µM) and the MIC (E. coli ATCC 25922; Trek PS plate, MHB +0.002% T80, no further additive) was 8 to 16 µg/mL. It also gave an MIC (A. baumannii ATCC 19606; ATCC19606, Corning NBS, MHB +T80) of 2 µg/mL (≈ 2.43 µM), an MIC (A. baumannii ATCC 19606; ATCC19606, Corning NBS, MHB -T80) of 2 µg/mL (≈ 2.43 µM) and an MIC (A. baumannii ATCC 19606; ATCC19606, Corning PS, MHB +T80) of 2 µg/mL (≈ 2.43 µM). The MIC (A. baumannii ATCC 19606; ATCC19606, Corning PS, MHB -T80) was 2 µg/mL (≈ 2.43 µM), the MIC (A. baumannii ATCC 19606; ATCC19606, Corning TC, MHB +T80) was 2 µg/mL (≈ 2.43 µM) and the MIC (A. baumannii ATCC 19606; ATCC19606, Corning TC, MHB -T80) was 2 to 4 µg/mL (≈ 2.43 to 4.86 µM). It also gave an MIC (K. pneumoniae ATCC 13883; ATCC13883, Corning NBS, MHB +T80) of 16 µg/mL (≈ 19.4 µM), an MIC (K. pneumoniae ATCC 13883; ATCC13883, Corning NBS, MHB -T80) of 16 µg/mL (≈ 19.4 µM) and an MIC (K. pneumoniae ATCC 13883; ATCC13883, Corning PS, MHB +T80) of 16 to 64 µg/mL (≈ 19.4 to 77.8 µM). For the same molecule, the MIC (K. pneumoniae ATCC 13883; ATCC13883, Corning PS, MHB -T80) was 8 to 16 µg/mL (≈ 9.72 to 19.4 µM), the MIC (K. pneumoniae ATCC 13883; ATCC13883, Corning TC, MHB +T80) was 16 µg/mL (≈ 19.4 µM) and the MIC (K. pneumoniae ATCC 13883; ATCC13883, Corning TC, MHB -T80) was 16 µg/mL (≈ 19.4 µM). The MIC (P. aeruginosa ATCC 10145; ATCC10145, Corning NBS, MHB +T80) was 32 µg/mL (≈ 38.9 µM), the MIC (P. aeruginosa ATCC 10145; ATCC10145, Corning NBS, MHB -T80) was 16 to 32 µg/mL (≈ 19.4 to 38.9 µM) and the MIC (P. aeruginosa ATCC 10145; ATCC10145, Corning PS, MHB +T80) was 32 to 64 µg/mL (≈ 38.9 to 77.8 µM). It also gave an MIC (P. aeruginosa ATCC 10145; ATCC10145, Corning PS, MHB -T80) of 16 to 32 µg/mL (≈ 19.4 to 38.9 µM), an MIC (P. aeruginosa ATCC 10145; ATCC10145, Corning TC, MHB +T80) of 32 µg/mL (≈ 38.9 µM) and an MIC (P. aeruginosa ATCC 10145; ATCC10145, Corning TC, MHB -T80) of 32 µg/mL (≈ 38.9 µM). The “MIC (literature)” value (MRSA) was 0.015 ([62]) µg/ml and the “MIC (literature)” value (E. coli) was 2 ([74], [75]) µg/ml.
